# In patent US12213980B2, “Application of PDE9A inhibitor in preparation of products having elevated Treg content, drugs for preventing and treating inflammatory bowel disease and health care products” (ZHEJIANG UNIVERSITY, priority 2018, dated 2025):
# Like-named read-outs stand apart in the source and are kept apart here.
# What was measured:
# [1] = system: DSS modeled mice; experiment: DSS induced model weight and colon length test; format: in vivo, C57 female mice
# [2] = system: colonic mucin secretion in DSS model mice; experiment: Intestinal mucin secretion test in DSS-induced model; format: in vivo, C57 female mice
# From the text: FIG. 3 is a control map of colonic mucin secretion in DSS model mice. It can be obtained from FIG. 3. The DSS group lost epithelial integrity, crypt structure, and goblet cell, company with immune cell infiltration, Smooth muscle cell hypertrophy and reduced secretory glycoprotein when compared with the control group.
# [3] = system: TNF-α, IL-17, IL-6, IL-12/IL-23 in colon tissue
# Description: (§1) C57 female mice were selected and weighed about 20 g. All mice were randomly divided into control group (control group), model group (DSS group), sulfasalazine group (AS group) and low dose group (PF3 group). The middle dose group (PF10 group) and the high dose group (PF30 group), a total of 6 groups, 10 mice in each group.
# (§2) The control group was treated with deionized water and the remaining 5 groups were fed with 3% DSS solution.
# (§3) During the period, the sulfasalazine group was intragastrically administered at a dose of 0.5 g/kg, and the PF-04447943 low-dose group, the middle-dose group, and the high-dose daily gavage were administered at a dose of 3 mg/kg, 10 mg/kg, and 30 mg/kg, respectively. The body weight, water bottle weight and the record were weighed daily. On the 8th day, the mice were sacrificed by deep anesthesia, and the colon, mesenteric lymph nodes, spleen and anus were taken. The length of the colon was measured and the colon was divided into three sections. The anal part specimens were fixed in formalin and the remaining specimens were stored frozen at −80° C. Isolating the mononuclear cells of colon, mesenteric lymph node and spleen, then staining separately, the distribution of DC cells and Treg cells in colon, mesenteric lymph nodes and spleen were determined by flow cytometry. IL-6, IL-12, TNF-α, IL-17 etc were measured by ELISA. SOD activity and MDA amount in colon tissue were measured, and the effect of PDE9A inhibitor PF-04447943 on mouse model was analyzed.
# After intestinal tissue homogenization, TNF-α, IL-17, IL-6, IL-12/IL-23 in colon tissue were determined by ELISA kit.
# [4] = system: DC cells in colon and mesenteric lymph nodes; experiment: Activation test of intestinal mucosa DC in DSS induced model (flow cytometry); format: in vivo, C57 female mice
# Description: as §1, §2, §3
# The colon was digested with collagenase, and the mesenteric lymph nodes were ground and sieved through 100 mesh to prepare single cell suspensions. The cell density was adjusted to […], and the DC cell amount was determined for each sample.
# FIG. 5 is a control plot of total DC and mature DC in colon, mesenteric lymphatic cleansing in DSS model mice.
# [5] = system: Treg cells in mesenteric lymph node, spleen and colon; experiment: Activation test of Treg in DSS induction model (flow cytometry); format: in vivo, C57 female mice
# Description: The colon was digested with collagenase, and the mesenteric lymph nodes and spleen tissues were ground and sieved through 100 mesh to prepare single cell suspensions. The cell density was adjusted to 10^5 cell/100 μl, and the Treg amount was determined for each sample.
# Related studies have shown that T cells, especially Treg cells, play a role in the protection of DSS inflammatory bowel disease model. In order to study the role of Treg in the DSS colitis model, three mesenteric lymph nodes, spleen and colon were evaluated based on trial 4, respectively.
# [6] = system: SOD activity and MDA amount in colon tissue
# Description: as §1, §2, §3
# After the intestinal tissue homogenization, SOD activity and MDA amount in colon tissue were determined by SOD and MDA assay kits.
# [7] = system: DSS mice; experiment: DSS-induced mouse model, overall comparison with sulfasalazine; format: in vivo, C57 female mice; details: high-dose PF-04447943 group (30 mg/kg) vs sulfasalazine at conventional dose (0.5 g/kg)
# [8] = cited from earlier work
# [9] = high dose group (30 mg/kg) vs DSS group
# [10] = high, medium and low dose groups vs DSS group
# [11] = high dose group (30 mg/kg) vs DSS group and control group
# [12] = high, medium and low dose groups vs control and DSS groups
compound,measurement,setting,value
C[C@@H]1CN(Cc2ncccn2)C[C@H]1c1nc2c(cnn2C2CCOCC2)c(=O)[nH]1 [PF-04447943],colon length,[1]; PF30 group (30 mg/kg) vs DSS group,significant difference
same,weight loss and colon shortening in the DSS-induced model,"[1]; conclusion, dose not stated",inhibited the weight loss and colon shortening
same,destruction of intestinal mucosal mucin secretion induced by DSS,"[2]; conclusion, dose not stated",significantly inhibit
same,"loss of epithelial integrity and crypt structure, loss of goblet cells, immune cell infiltration, smooth muscle cell hypertrophy, secretory glycoprotein reduction","[2]; low-dose, medium-dose and high-dose groups (3, 10, 30 mg/kg)",gradually reversed
same,protective effect on colonic epithelial cells,"[2]; with increasing dose of PF-04447943 (3, 10, 30 mg/kg)",gradually better
same,DSS-induced inflammatory factors secreted by the intestinal mucosa,"[3]; conclusion, dose not stated",significantly inhibits
same,IL-6 level in colon tissue,[3]; [9],significantly lower than those in the DSS group
same,IL-12/IL-23 level in colon tissue,[3]; [9],statistically significant compared with the DSS group
same,IL-17 level in colon tissue,[3]; [9],statistically significant compared with the DSS group
same,TNF-α level in colon tissue,[3]; [9],statistically significant compared with the DSS group
same,IL-6 level in colon tissue,[3]; middle dose group (10 mg/kg) vs DSS group,significantly lower than those in the DSS group
same,migration of DC cells from the colon to the mesenteric lymph nodes and DC maturation,"[4]; conclusion, dose not stated",can inhibit
same,activated DC cells in mesenteric lymph node (MLN),[4]; [10],significantly lower than the DSS group
same,activated DC (mDC) cells in colon,"[4]; low, medium and high dose groups (3, 10, 30 mg/kg) vs DSS group",significantly lower than the DSS group
same,total DC cells in mesenteric lymph node (MLN),"[4]; low, medium and high groups (3, 10, 30 mg/kg) vs DSS group",significantly lower than the DSS group
same,DSS-inhibited Treg activation,"[5]; conclusion, dose not stated",significantly enhanced
same,differentiation of CD4+Foxp3+ Treg cells,"[5]; conclusion, dose not stated",significantly induced an increase
same,CD4+FOXP3+ Treg cells in colon,[5]; [11],significantly higher than that of the DSS group and the control group
same,CD4+FOXP3+ Treg cells in mesenteric lymph nodes,[5]; [11],significantly higher than that of the DSS group and the control group
same,CD4+FOXP3+ Treg cells in spleen,[5]; [11],significantly higher than that of the DSS group and the control group
same,CD4+CD25+ Treg cells in colon,[5]; [10],significantly higher in the colon than in the DSS group
same,CD4+CD25+ Treg cells in mesenteric lymph nodes,[5]; [12],significantly lower
same,CD4+CD25+ Treg cells in spleen,[5]; [12],significantly lower
same,DSS-induced intestinal oxidative stress damage,"[6]; conclusion, dose not stated",significantly inhibit
same,MDA amount in colon tissue,[6]; drug group vs DSS group,lower than that of the DSS group
same,MDA amount in colon tissue,[6]; [9],statistically different from the DSS group
same,SOD activity in colon tissue,[6]; [9],improved compared with the DSS group
same,"efficacy in IL-6 secretion, SOD activity, MDA amount, activation of DC and regulation of Treg",[7],superior to the conventional drug sulfasalazine at conventional dose
O=C(O)c1cc(/N=N/c2ccc(S(=O)(=O)Nc3ccccn3)cc2)ccc1O [sulfasalazine],activated DC cells in colon,"[4]; sulfasalazine group 0.5 g/kg, compared with PF-04447943 dose groups",lower than the high dose group
vedolizumab: α4β7 integrin antibody approved by the FDA in 2014 for moderate to severe UC and CD,patients with adverse reactions,[8]; CD patients,37%
same,patients with adverse reactions,[8]; UC patients,29%
same,clinical improvement,[8]; patients treated with vedolizumab,significant Clinical improvement
